Assay results: PMC6954720, “Discovery of retinoic acid receptor agonists as proliferators of cardiac progenitor cells through a phenotypic screening approach” (Stem Cells Translational Medicine, 2019)
“Also recorded” adds a separate entry of the source.

Each compound was assayed on human iPS-derived cardiac progenitor cells (CPCs) (assay: CPC proliferation assay (nuclear count)). Settings: not given.
Type: cell-based
Method: (§1) The CPC proliferation assay including image and data analysis was performed as previously described.14 Cardiac progenitor marker antibodies are listed in Table S3.
A library of 10 000 compounds was screened in singlicate at three concentrations (0.1, 1.0, and 10 μM) in the CPC proliferation assay. Each plate contained neutral controls, 0.1% DMSO and maximum controls, 100 ng/mL human basic fibroblast growth factor (FGF; Invitrogen, ThermoFisher Scientific, Waltham, Massachusetts). The data were analyzed using the Genedata Screener software (Genedata, Inc, Basel, Switzerland). […] Results were calculated using the following calculation method: compound % effect = 100 × [(X − min)/(max − min)], where X represents a normalized value for the compound based on the neutral and maximum controls.
The library was screened in three‐point concentration response (CR) at 0.1, 1.0, and 10 μM measuring proliferation of human induced pluripotent stem (iPS)‐derived CPCs with nuclear count, as measured by Hoechst staining, as the primary endpoint.

Structure (SMILES) | CPC proliferation, result in words
CC1=C(/C=C/C(C)=C/C=C/C(C)=C/CO)C(C)(C)CCC1 [Retinol] | no effect
CC1(C)CCC(C)(C)c2cc(C#Cc3ccc(C(=O)O)cc3)ccc21 [EC 23] | EC50 values in the low nanomolar range
Cc1cc2c(cc1-c1cc(/C=C/C(=O)O)ccc1O)C(C)(C)CCC2(C)C [CD 3254] | inactive
CC1(C)CCC(C)(C)c2cc(NC(=O)c3ccc(C(=O)O)cc3)ccc21 [AM80] | EC50 values in the low nanomolar range

These compounds were tested against T1, RARA (alpha) ligand binding domain (Homo sapiens, UniProt P10276) (assay: RAR LBD-SRC1-2 coactivator peptide recruitment assay, agonist format, RARA). Settings: read-out: RARα pEC50 (converted).
T1 sequence (P10276 183-417 limits assumed): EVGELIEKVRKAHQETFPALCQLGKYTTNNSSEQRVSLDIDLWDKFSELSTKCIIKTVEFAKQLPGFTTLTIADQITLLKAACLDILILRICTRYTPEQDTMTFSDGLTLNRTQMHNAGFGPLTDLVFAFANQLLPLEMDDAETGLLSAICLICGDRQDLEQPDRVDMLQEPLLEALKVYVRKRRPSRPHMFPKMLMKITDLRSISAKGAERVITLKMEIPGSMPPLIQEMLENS
Type: biochemical
Method: (§2) RAR ligand binding domain (LBD)‐SRC1‐2 coactivator peptide (NCOA1_677‐700 biotinylated) recruitment assays were established for the three RAR isotypes RARA (alpha), RARB (beta), and RARG (gamma) to determine relative potencies. […] A total of 0.4 μL of a fixed concentration range of test ligands dissolved in dimethyl sulphoxide (DMSO) was added to assay plates using an acoustic liquid dispenser. […] The raw data were transformed to % effect using the equation: compound % effect = 100 × [(X − min)/(max − min)], where X represents the effect in the presence of test compound and max and min are the effects in presence of the maximum and minimum controls, respectively.
(§3) The data were plotted to generate concentration‐response profiles and the concentration‐response curves were fit to the data using the four‐parameter logistic smart fit method in the Genedata Screener software (Genedata, Inc).

Structure (SMILES) | EC50
CC1=C(/C=C/C(C)=C/C=C/C(C)=C/CO)C(C)(C)CCC1 [Retinol] | > 20 µM
Cc1ccc(C2=CC(C)(C)Oc3c(Br)cc(C(=O)Nc4ccc(C(=O)O)c(F)c4)cc32)cc1 [AGN 194301] | > 20 µM
Cc1cc2c(cc1-c1cc(/C=C/C(=O)O)ccc1O)C(C)(C)CCC2(C)C [CD 3254] | > 20 µM

What follows are compounds tested against T2, RARB (beta) ligand binding domain (Homo sapiens, UniProt P10826) (assay: RAR LBD-SRC1-2 coactivator peptide recruitment assay, agonist format, RARB). Settings: not given.
T2 sequence (P10826 183-417 limits assumed): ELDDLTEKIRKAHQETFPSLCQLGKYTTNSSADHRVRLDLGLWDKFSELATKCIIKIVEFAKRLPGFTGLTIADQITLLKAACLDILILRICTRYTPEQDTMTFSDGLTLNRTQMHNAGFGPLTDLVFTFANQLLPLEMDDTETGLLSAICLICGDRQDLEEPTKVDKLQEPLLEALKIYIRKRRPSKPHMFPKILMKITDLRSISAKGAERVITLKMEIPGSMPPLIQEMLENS
Type: biochemical
Method: as §2, §3

Structure (SMILES) | maximal effect (% top effect)
CC1(C)CCC(C)(C)c2cc(NC(=O)c3ccc(C(=O)O)cc3)ccc21 [AM80] | 149%

Same assay, conditions: read-out: RARβ pEC50 (converted)

Structure (SMILES) | EC50
CC1=C(/C=C/C(C)=C/C=C/C(C)=C/CO)C(C)(C)CCC1 [Retinol] | > 20 µM
Cc1ccc(C2=CC(C)(C)Oc3c(Br)cc(C(=O)Nc4ccc(C(=O)O)c(F)c4)cc32)cc1 [AGN 194301] | > 20 µM
Cc1cc2c(cc1-c1cc(/C=C/C(=O)O)ccc1O)C(C)(C)CCC2(C)C [CD 3254] | > 20 µM

These compounds were tested against T3, RARG (gamma) ligand binding domain (Homo sapiens, UniProt P13631) (assay: RAR LBD-SRC1-2 coactivator peptide recruitment assay, agonist format, RARG). Settings: not given.
T3 sequence (P13631 185-419 limits assumed): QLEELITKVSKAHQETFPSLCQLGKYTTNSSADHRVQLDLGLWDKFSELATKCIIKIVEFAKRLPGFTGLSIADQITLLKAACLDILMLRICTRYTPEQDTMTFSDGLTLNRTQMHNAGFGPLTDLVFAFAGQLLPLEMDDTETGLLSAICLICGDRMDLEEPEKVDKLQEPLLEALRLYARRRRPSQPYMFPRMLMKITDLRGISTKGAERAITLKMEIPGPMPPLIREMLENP
Type: biochemical
Method: as §2, §3

Structure (SMILES) | RARγ pEC50 (% top effect): % top effect
CC1(C)CCC(C)(C)c2cc(NC(=O)c3ccc(C(=O)O)cc3)ccc21 [AM80] | 119%

Same assay, conditions: read-out: RARγ pEC50 (converted)

Structure (SMILES) | EC50
CC1=C(/C=C/C(C)=C/C=C/C(C)=C/CO)C(C)(C)CCC1 [Retinol] | > 20 µM
Cc1ccc(C2=CC(C)(C)Oc3c(Br)cc(C(=O)Nc4ccc(C(=O)O)c(F)c4)cc32)cc1 [AGN 194301] | > 20 µM
Cc1cc2c(cc1-c1cc(/C=C/C(=O)O)ccc1O)C(C)(C)CCC2(C)C [CD 3254] | > 20 µM

What follows are compounds tested against T1, RARA (alpha) ligand binding domain (assay: RAR coactivator peptide recruitment assay, antagonist format, RARA). Settings: antagonist format, 10 nM ATRA.
Type: biochemical
Method: as §2, §3

Structure (SMILES) | RARα pIC50 (% top effect): % top effect
Cc1ccc(C2=CC(C)(C)Oc3c(Br)cc(C(=O)Nc4ccc(C(=O)O)c(F)c4)cc32)cc1 [AGN 194301] | 108%

Same assay, conditions: read-out: RARα pIC50 (converted)

Structure (SMILES) | IC50
CC1=C(/C=C/C(C)=C/C=C/C(C)=C/CO)C(C)(C)CCC1 [Retinol] | > 20 µM
Cc1ccc(C2=CC(C)(C)Oc3c(Br)cc(C(=O)Nc4ccc(C(=O)O)c(F)c4)cc32)cc1 [AGN 194301] | 0.00251 µM
Cc1cc2c(cc1-c1cc(/C=C/C(=O)O)ccc1O)C(C)(C)CCC2(C)C [CD 3254] | > 20 µM

Each compound was assayed against T2, RARB (beta) ligand binding domain (assay: RAR coactivator peptide recruitment assay, antagonist format, RARB). Settings: antagonist format, 10 nM TTNPB.
Type: biochemical
Method: as §2, §3

Structure (SMILES) | RARβ pIC50 (% top effect): % top effect
Cc1ccc(C2=CC(C)(C)Oc3c(Br)cc(C(=O)Nc4ccc(C(=O)O)c(F)c4)cc32)cc1 [AGN 194301] | 105%

Same assay, conditions: read-out: RARβ pIC50 (converted)

Structure (SMILES) | IC50
CC1=C(/C=C/C(C)=C/C=C/C(C)=C/CO)C(C)(C)CCC1 [Retinol] | > 20 µM
Cc1ccc(C2=CC(C)(C)Oc3c(Br)cc(C(=O)Nc4ccc(C(=O)O)c(F)c4)cc32)cc1 [AGN 194301] | 0.00126 µM
Cc1cc2c(cc1-c1cc(/C=C/C(=O)O)ccc1O)C(C)(C)CCC2(C)C [CD 3254] | > 20 µM

What follows are compounds tested against T3, RARG (gamma) ligand binding domain (assay: RAR coactivator peptide recruitment assay, antagonist format, RARG). Settings: 10 nM R-667.
Type: biochemical
Method: as §2, §3

Structure (SMILES) | RARγ pIC50 (% top effect): % top effect
Cc1ccc(C2=CC(C)(C)Oc3c(Br)cc(C(=O)Nc4ccc(C(=O)O)c(F)c4)cc32)cc1 [AGN 194301] | 106%

Same assay, conditions: 10 nM R-667, read-out: RARγ pIC50 (converted)

Structure (SMILES) | IC50
CC1=C(/C=C/C(C)=C/C=C/C(C)=C/CO)C(C)(C)CCC1 [Retinol] | > 20 µM
Cc1ccc(C2=CC(C)(C)Oc3c(Br)cc(C(=O)Nc4ccc(C(=O)O)c(F)c4)cc32)cc1 [AGN 194301] | 0.02 µM
Cc1cc2c(cc1-c1cc(/C=C/C(=O)O)ccc1O)C(C)(C)CCC2(C)C [CD 3254] | > 20 µM

Each compound was assayed on iPS-derived CPCs (assay: Cardiac progenitor marker antibody staining of treated CPCs). Settings: 40 nM, 3 days.
Type: cell-based, human
Method: as §1
A key requirement of the screen was that the expanded CPCs must retain their progenitor phenotype.
Figure 2 Cardiac progenitor cells (CPCs) retain progenitor markers after retinoic acid receptor agonist treatment. […] Larger images are representative merged images of Hoechst nuclear stain in blue and immunofluorescence of the indicated progenitor marker in green. Insets show the progenitor marker staining in gray scale at 3.3‐fold higher magnification. Scale bars: 50 μm

Structure (SMILES) | expression of cardiac progenitor markers Nkx2.5, Islet1, Gata4, PDGFRα after treatment
CC1(C)CCC(C)(C)c2cc(NC(=O)c3ccc(C(=O)O)cc3)ccc21 [AM80] | retain expression

What follows are compounds tested on HuES6 hPSC-derived cardiac progenitors (assay: HuES6-derived cardiac progenitors replated on day 5: cell number, RT-qPCR, immunocytochemistry). Settings: 1 μM, day-5 replated cells, 4 days.
Type: cell-based, human
Method: Insulin and signaling agonists were omitted after 1 day. On days 2‐3, the nascent mesodermal cells were specified to the cardiac lineage using 0.2 μM C‐59 (R&D Tocris) supplementation. Culture medium was replaced daily.
Basal cardiac progenitor medium was composed of DMEM/F12 (ThermoFisher Scientific), insulin/transferrin/selenium supplement, 0.1% human serum albumin (Biological Industries Inc, Cromwell, Connecticut), 1× chemically defined lipids (ThermoFisher Scientific), and antibiotics. RAR agonists (1 μM) were added from the day of passaging the cells. Samples were harvested and monitored after 4 days of treatment.
Cell numbers per well were quantified following single‐cell dissociation with Accutase and using standard Neubauer counting chambers. RT‐qPCR and immunocytochemistry were performed according to standard procedures. RPL37A served as housekeeping gene for normalization.

Structure (SMILES) | terminal cardiac differentiation, in words
CC1(C)CCC(C)(C)c2cc(C#Cc3ccc(C(=O)O)cc3)ccc21 [EC 23] | pronounced inhibition of terminal cardiac differentiation
CC1(C)CCC(C)(C)c2cc(NC(=O)c3ccc(C(=O)O)cc3)ccc21 [AM80] | pronounced inhibition of terminal cardiac differentiation

Same assay, conditions: 1 μM, day-5 replated cells, 4 days; with the exception of ISL1

Structure (SMILES) | expression of cardiac progenitor markers vs untreated
CC1(C)CCC(C)(C)c2cc(C#Cc3ccc(C(=O)O)cc3)ccc21 [EC 23] | enhanced the expression of cardiac progenitor markers
CC1(C)CCC(C)(C)c2cc(NC(=O)c3ccc(C(=O)O)cc3)ccc21 [AM80] | enhanced the expression of cardiac progenitor markers

Same assay, conditions: 1.0 μM, day-5 replated progenitors, 4 days of exposure

Structure (SMILES) | effect on cell proliferation / cell numbers, in words
CC1(C)CCC(C)(C)c2cc(C#Cc3ccc(C(=O)O)cc3)ccc21 [EC 23] | strong positive effects on cell proliferation
CC1(C)CCC(C)(C)c2cc(NC(=O)c3ccc(C(=O)O)cc3)ccc21 [AM80] | strong positive effects on cell proliferation

Each compound was assayed on RAR (assay: RAR coactivator recruitment assay (isotypes not separated)). Settings: not given.
Type: biochemical
Method: as §2, §3

Structure (SMILES) | activity in RAR coactivator recruitment assay, in words
CC1=C(/C=C/C(C)=C/C=C/C(C)=C/CO)C(C)(C)CCC1 [Retinol] | inactive

What follows are compounds tested on iPS-derived CPCs (assay: not given). Settings: absence of RAR agonist.

Structure (SMILES) | effect on CPC proliferation of antagonist alone | toxicity to CPCs
Cc1ccc(C2=CC(C)(C)Oc3c(Br)cc(C(=O)Nc4ccc(C(=O)O)c(F)c4)cc32)cc1 [AGN 194301] | did not proliferate the cells; also recorded: no effect on proliferation | no signs of toxicity

What follows are compounds tested on human iPS-derived cardiac progenitor cells (CPCs) (assay: CPC proliferation assay (nuclear count)). Settings: iPSC-derived CPC proliferation, 10-point concentration response, read-out: CPC pEC50 (converted).
Type: cell-based

Structure (SMILES) | EC50
CC1=C(/C=C/C(C)=C/C=C/C(C)=C/CO)C(C)(C)CCC1 [Retinol] | > 10 µM
Cc1ccc(C2=CC(C)(C)Oc3c(Br)cc(C(=O)Nc4ccc(C(=O)O)c(F)c4)cc32)cc1 [AGN 194301] | > 10 µM
CC1(C)CCC(C)(C)c2cc(C#Cc3ccc(C(=O)O)cc3)ccc21 [EC 23] | 0.00126 µM
Cc1cc2c(cc1-c1cc(/C=C/C(=O)O)ccc1O)C(C)(C)CCC2(C)C [CD 3254] | > 10 µM
CC1(C)CCC(C)(C)c2cc(NC(=O)c3ccc(C(=O)O)cc3)ccc21 [AM80] | 0.00794 µM
